Non-standard residues stand in square brackets, D forms with d. Residues, ends and D or L forms follow the SMILES beside them. pGlu = O=C1CC[C@@H](C(=O)O)N1
Columns and labels:
pituitary gland [1] = test system: pituitary gland
[2] = test system: dispersed rat pituitary cells; assay: In vitro suppression of LRF-generated LH secretion in dispersed rat pituitary cell culture; format: cell-based; conditions: molar ratio of peptide to LRF; culture inoculated with 3×10^-5 M of LRF
Method: (§1) Using the above method, the peptide compositions set forth below in Tables I and II were prepared. The peptide compositions were assayed in vitro and in vivo. The in vitro assay was made using a 5 day old primary culture of dispersed rat pituitary cells. The LH secreted in response to the peptide compositions was assayed by specific radioimmunoassay for rat LH. The peptide compositions were applied to the culture at a level of 3×10^-5 M. The potency of these peptide compositions which stimulate secretion of gonadotropins is expressed in terms of percent LRF potency wherein LRF has a potency of 100. For those peptide compositions which are antagonistic to secretion of gonadotropins, the culture was inoculated with 3×10^-5 M of LRF and the molar ratio of the peptide required to suppress secretion of LH generated by the LRF was determined.

rats [3] = assay: In vivo suppression of LH secretion generated by injected LRF in rats; parameters: species or system rat; conditions: molar ratio of peptide to LRF; rats injected with 100 nanograms of LRF
Method: (§2) The effectiveness of the peptide compositions which stimulate secretion of gonadotropins was determined in vivo by intravenous injection of 100 nanograms of the peptide into rats. The rats were chronically ovariectomized and were treated with estrogen and progesterone prior to assay. The LH level was determined in plasma by solid phase radioimmunoassay for rat LH. For those peptide compositions which are antagonistic to secretion of gonadotropins, the rats were injected with 100 nanograms of LRF and the molar ratio of the peptide required to suppress section of LH generated by the LRF was determined.

pituitary gland [4] = assay: Release of gonadotropins after administration to a mammal; format: in vivo; conditions: 500 nanograms per kilogram of body weight
pituitary gland [5] = assay: Inhibition of release of gonadotropins by the pituitary gland (test not given); parameters: species or system mammalians; conditions: relative to Gly6 peptide
rats [6] = assay: In vivo plasma LH after intravenous injection into ovariectomized, estrogen/progesterone-treated rats; parameters: species or system rat; conditions: intravenous injection of 100 nanograms of peptide, LRF = 100
Method: as §2

[7] = test system: dispersed rat pituitary cells; assay: In vitro LH secretion by primary culture of dispersed rat pituitary cells (stimulation), rat LH radioimmunoassay; format: cell-based; conditions: peptide applied to culture at 3×10^-5 M; LRF has a potency of 100
Method: as §1

| Compound | percent potency for effecting release of luteinizing hormone (compared to the LRF decapeptide) (pituitary gland [1]) [%] | Molar ratio necessary to produce inhibition In Vitro [2] | Molar ratio necessary to produce inhibition In Vivo (rats [3]) | also measured |
| --- | --- | --- | --- | --- |
| CC(C)C[C@H](NC(=O)[C@@H](CC(C)C)NC(=O)[C@H](Cc1ccc(O)cc1)NC(=O)[C@H](CO)NC(=O)[C@H](Cc1c[nH]c2ccccc12)NC(=O)[C@H](Cc1c[nH]cn1)NC(=O)[C@@H]1CCC(=O)N1)C(=O)N[C@@H](CCCNC(=N)N)C(=O)N1CCC[C@H]1C(=O)NCC(N)=O [D-Leu for Gly] | 60 | – | – | – |
| CC(C)C[C@H](NC(=O)[C@H]1CCCN1C(=O)[C@H](Cc1ccc(O)cc1)NC(=O)[C@H](CO)NC(=O)[C@H](Cc1c[nH]c2ccccc12)NC(=O)[C@H](Cc1c[nH]cn1)NC(=O)[C@@H]1CCC(=O)N1)C(=O)N[C@@H](CCCNC(=N)N)C(=O)N1CCC[C@H]1C(=O)NCC(N)=O [D-Pro] | 10 | – | – | – |
| CC(C)C[C@H](NC(=O)[C@H](NC(=O)[C@H](Cc1ccc(O)cc1)NC(=O)[C@H](CO)NC(=O)[C@H](Cc1c[nH]c2ccccc12)NC(=O)[C@H](Cc1c[nH]cn1)NC(=O)[C@@H]1CCC(=O)N1)C(C)C)C(=O)N[C@@H](CCCNC(=N)N)C(=O)N1CCC[C@H]1C(=O)NCC(N)=O [D-Val for Gly] | 30 | – | – | – |
| CC(C)C[C@H](NC(=O)[C@H](C)NC(=O)[C@H](Cc1ccc(O)cc1)NC(=O)[C@H](CO)NC(=O)[C@H](Cc1c[nH]c2ccccc12)NC(=O)[C@H](Cc1c[nH]cn1)NC(=O)[C@@H]1CCC(=O)N1)C(=O)N[C@@H](CCCNC(=N)N)C(=O)N1CCC[C@H]1C(=O)NCC(N)=O [L-Ala for Gly in the 6-position of LRF] | 3 | – | – | – |
| CCNC(=O)[C@@H]1CCCN1C(=O)[C@H](CCCNC(=N)N)NC(=O)[C@H](CC(C)C)NC(=O)[C@@H](C)NC(=O)[C@H](Cc1ccc(O)cc1)NC(=O)[C@H](CO)NC(=O)[C@H](Cc1c[nH]c2ccccc12)NC(=O)CNC(=O)[C@@H]1CCC(=O)N1 [pGlu-Gly-Trp-Ser-Tyr-D-Ala-Leu-Arg-Pro-NHCH2 CH3] ([pGlu]GWSY[dA]LRP-NHEt) | – | 700 | 500 | – |
| CC(C)C[C@H](NC(=O)CNC(=O)[C@H](Cc1ccc(O)cc1)NC(=O)[C@H](CO)NC(=O)[C@H](Cc1c[nH]c2ccccc12)NC(=O)[C@H](Cc1c[nH]cn1)NC(=O)[C@@H]1CCC(=O)N1)C(=O)N[C@@H](CCCNC(=N)N)C(=O)N1CCC[C@H]1C(=O)NCC(N)=O [pGlu-His-Trp-Ser-Tyr-Gly-Leu-Arg-Pro-Gly-NH2] | – | – | – | release of gonadotropins by the pituitary gland (in words) (pituitary gland [4]): significant release of gonadotropins |
| CC(C)C[C@H](NC(=O)[C@@H](C)NC(=O)[C@H](Cc1ccc(O)cc1)NC(=O)[C@H](CO)NC(=O)[C@H](Cc1c[nH]c2ccccc12)NC(=O)[C@@H]1CCC(=O)N1)C(=O)N[C@@H](CCCNC(=N)N)C(=O)N1CCC[C@H]1C(=O)NCC(N)=O [pGlu-Trp-Ser-Tyr-D-Ala-Leu-Arg-Pro-Gly-NH2] ([pGlu]WSY[dA]LRPG-NH2) | – | 700 | 500 | times more potent as inhibitor for release of gonadotropins than the same peptide with Gly in the 6-position (pituitary gland [5]): 3 times |
| CC(C)C[C@H](NC(=O)CNC(=O)[C@H](Cc1ccc(O)cc1)NC(=O)[C@H](CO)NC(=O)[C@H](Cc1c[nH]c2ccccc12)NC(=O)[C@@H]1CCC(=O)N1)C(=O)N[C@@H](CCCNC(=N)N)C(=O)N1CCC[C@H]1C(=O)NCC(N)=O [pGlu-deleted-Trp-Ser-Tyr-Gly-Leu-Arg-Pro-Gly-NH2] ([pGlu]WSYGLRPG-NH2) | – | 2,000 | 3,000 | – |
| pGlu-His-Trp-Ser-Tyr-Gly-Leu-Arg-Pro-NHCH 2 CH3 | – | – | – | Percent LRF Potency In Vivo (rats [6]): 300%; Percent LRF Potency In Vitro [7]: 1,500% |
